Where two headings read alike, the source gives them in different places. Marks after values point to notes of the source that are not given here.
Legend:
NCI-H295R cells = experiment: H295R steroidogenesis assay; format: cell-based, human; conditions: for Effect on androgen (steroid) synthesis, in words: H295R steroidogenesis assay; for IC20: read-out: Testosterone inhibition (IC20 µM)
Experimental: To capture effects on steroid hormone synthesis (testosterone and androstendione), we tested all 12 pesticides in the H295R assay with the human adrenocortical carcinoma cell line NCI-H295R (American Type Culture Collection no. CRL-2,128, LGC Standards), as previously described ([Hecker et al. 2011]; [Rosenmai et al. 2013]). In brief, cells were cultured in DMEM/F-12 +glutamine medium with HEPES buffer (Invitrogen) containing 1% insulin-transferrin-sodium selenite plus Premix (VWR) and 2.5% Nu-Serum (BD Bioscience) at 37°C in a 5% CO2 atmosphere. The day before exposure, cells were seeded 300,000 per well in clear 24-well plates (VWR Corning). Cells were exposed for 48 h to control (Forskolin: 1μM , 10μM (Sigma-Aldrich); and Prochloraz: 0.3μM , 3μM (VWR-Bie and Berntsen) or test compounds. The vehicle (DMSO) concentration was kept constant in all wells (0.1%). After 48 h, the exposure culture medium was removed and stored at –80°C until the levels of 10 steroid hormones (testosterone, androstenedione, aldosterone, corticosterone, cortisol, dehydroepiandrosterone, 17α-hydroxyprogesterone , progesterone, estrone, and 17β-estradiol ) were quantified using the high-performance liquid chromatography–tandem mass spectrometry method described elsewhere ([Mortensen and Pedersen 2007]). Minor modifications were made to accommodate a smaller sample size and to include more hormones. The liquid chromatography system (Agilent 1100) was equipped with an Atlantis C18 column ( 2.1×150mm , 3μm ) (Waters Corp.) maintained at 40°C. The sample injection volume was 50μL . […] The mass spectrometer was a Quattro Ultima triple quadrupole instrument (Waters Corp.). […] Each pesticide was tested in 2-fold serial dilutions at concentrations between 0.8 and 50μM in three independent experiments, and hormone levels were normalized to the solvent controls containing 0.1% DMSO. Cell viability was evaluated by using the 3-(4,5-dimethylthiazol-2-yl)-2,5- diphenyltetrazolium bromide (MTT) assay (Sigma) as previously described ([Hecker et al. 2011]; [Rosenmai et al. 2013]). Fluorescence was measured (excitation 560 nm , emission 590 nm ) using a Wallac Victor2 1420 multilabel counter (PerkinElmer).

[1] = PBK model first-order kinetic parameters fitted to in vivo ADME data; parameters: species or system rat; conditions: PBK model parameter; for Metabolism rate in liver, Total (L/h) KMetab: metabolic clearance
[2] = parameters: method as in U.S. EPA 2012; conditions: EPI Suite, experimental preferred over modeled; ref U.S. EPA 2012; cited from earlier work
[3] = ref Wetmore et al. (2012); cited from earlier work
Sprague-Dawley rats = experiment: In vivo Study 2 (linuron), reproductive/developmental toxicity, AGD; conditions: for AGDI mean: Study 2, male pups; for AGDI reduction (%): male offspring, normalized AGDI scale
pregnant dams and pups = conditions: ref EFSA's Draft Assessment Reports (DARs); cited from earlier work

SMILES	Effect on androgen (steroid) synthesis, in words (NCI-H295R cells)	Fecal excretion rate from gut (L/h) KFeces [1] [L/h]	Portal GI absorption rate into liver (L/h) KAS [1] [L/h]	Urine excretion rate from kidney (L/h) KUrine [1] [L/h]	Metabolism rate in liver, Total (L/h) KMetab [1] [L/h]	log Kow [2]	Unbound plasma fraction (%) [3]	Critical toxicity (pregnant dams and pups)	other results
CON(C)C(=O)Nc1ccc(Cl)c(Cl)c1 [Linuron, linuron, reference compound]	inhibited the synthesis of androgens	0.08	0.5	0.05	1.0	3.20	10.5^g %		IC50 (NCI-H295R cells; Homo sapiens, NCI-H295R, 48 h, read-out: Testosterone inhibition (IC50, μM)): 27 µM; AGDI ED10 (Sprague-Dawley rats; Study 2, dose causing 10% AGDI reduction, regression): 27 mg/kg BW; AGDI mean (Sprague-Dawley rats; dose 25 mg/kg BW (control 1.00)): 0.91; AGDI mean (Sprague-Dawley rats; dose 50 mg/kg BW (control 1.00)): 0.72; Maternal toxicity (Sprague-Dawley rats; highest dose, 75 mg/kg per day): Maternal toxicity was observed; AGDI reduction (%) (Sprague-Dawley rats; dose 25 mg/kg BW per day): 9%; AGDI reduction (%) (Sprague-Dawley rats; dose 50 mg/kg BW per day): 28%
Oc1ccccc1-c1ccccc1 [o -Phenylphenol, o -phenylphenol]	inhibited testosterone synthesis	0.1	1	0.01	0.2	3.09	4.1^g %	Maternal BW gain, bladder & kidney effect	IC20 (NCI-H295R cells; NCI-H295R cells): 25 µM; Estradiol, LOEC (NCI-H295R cells; multiple contrast tests): 25 µM; Testosterone, lowest observed effect concentration (LOEC) (NCI-H295R cells; multiple contrast tests): 50 µM; LOAEL (mg/kg bw) (pregnant dams and pups): 140 mg/kg bw; NOAEL (mg/kg bw) (pregnant dams and pups): 40 mg/kg bw
CC1(C)[C@H](C(=O)O[C@H](C#N)c2cccc(Oc3ccccc3)c2)[C@@H]1/C=C(\Cl)C(F)(F)F (racemic) [λ-Cyhalothrin, λ-cyhalothrin]	no effect on any measured androgen	4	1	0.05	0.3	6.80		Reduced maternal and pup BW	IC20 (NCI-H295R cells; Homo sapiens, NCI-H295R): > 50 µM; Corticosterone, LOEC (NCI-H295R cells; multiple contrast tests): 3.1 µM; Cortisol, LOEC (NCI-H295R cells; multiple contrast tests): 3.1 µM
